Tested on: SW480
Test: drug sensitivity score (DSS, integrated dose-response area); higher = more sensitive (stronger viability reduction); extreme values may be limits of the assay
Outline: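 SW480 cells stably carrying doxycycline-inducible control or SND1-targeting shRNA were treated with 0.1 µg/mL doxycycline for 7 days. Cells were then seeded at 1000 per well into 384-well plates containing 525 commercially available small-molecule inhibitors at five concentrations, and viability was measured with CellTiter-Glo after 72 h. The drug sensitivity score integrates the area under a fitted non-linear dose–response model.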

[1] = shRNA: SND1 shRNA1 (SND1 silenced)
[2] = shRNA: SND1 shRNA2 (SND1 silenced)
[3] = shRNA: control shRNA (non-targeting)

Structure (SMILES)	drug sensitivity score [1]	drug sensitivity score [2]	drug sensitivity score [3]
COc1cccc2c1C(=O)c1c(O)c3c(c(O)c1C2=O)C[C@@](O)(C(=O)CO)C[C@@H]3O[C@H]1C[C@H](N)[C@H](O)[C@H](C)O1 [Doxorubicin]	4.5 DSS	4.1 DSS	4.1 DSS
C[C@H](Nc1ncnc2nc[nH]c12)c1cc2cccc(Cl)c2c(=O)n1-c1ccccc1 [Duvelisib]	0.6 DSS	3 DSS	5.5 DSS
Cc1cc(Nc2cc(N3CCN(C)CC3)nc(/C=C/c3ccccc3)n2)n[nH]1 [ENMD-2076]	11.9 DSS	10.7 DSS	12 DSS
Cc1cc(C)c(CNC(=O)c2cc(-c3ccc(CN4CCOCC4)cc3)cc3c2cnn3C2CCCC2)c(=O)[nH]1 [EPZ-5687]	0 DSS	0 DSS	0 DSS
COC(=O)N[C@@H](C)CNc1nccc(-c2cn(C(C)C)nc2-c2cc(Cl)cc(NS(C)(=O)=O)c2F)n1 [Encorafenib]	0 DSS	–	1.6 DSS
Nc1ccccc1NC(=O)c1ccc(CNC(=O)OCc2cccnc2)cc1 [Entinostat]	5.3 DSS	2.6 DSS	2.8 DSS
c1cn2cc(-c3ccc4cn[nH]c4c3)nc(Nc3ccc(N4CCOCC4)cc3)c2n1 [Entospletinib]	0 DSS	0 DSS	0 DSS
CNC(=O)c1ccc(N2C(=S)N(c3ccc(C#N)c(C(F)(F)F)c3)C(=O)C2(C)C)cc1F [Enzalutamide]	0 DSS	1.3 DSS	0 DSS
Cn1cc(C2=C(c3cn(C4CCN(Cc5ccccn5)CC4)c4ccccc34)C(=O)NC2=O)c2ccccc21 [Enzastaurin]	4.1 DSS	0 DSS	1.4 DSS
NS(=O)(=O)NCCNc1nonc1/C(=N/O)Nc1ccc(F)c(Br)c1 [Epacadostat]	0 DSS	1.5 DSS	0.1 DSS
C#Cc1cccc(Nc2ncnc3cc(OCCOC)c(OCCOC)cc23)c1 [Erlotinib]	2.6 DSS	2.5 DSS	2.4 DSS
C[C@]12CC[C@@H]3c4ccc(OC(=O)N(CCCl)CCCl)cc4CC[C@H]3[C@@H]1CC[C@@H]2O [Estramustine]	0 DSS	–	0 DSS
COc1cc([C@@H]2c3cc4c(cc3[C@@H](O[C@@H]3O[C@@H]5CO[C@@H](C)O[C@H]5[C@H](O)[C@H]3O)[C@H]3COC(=O)[C@H]23)OCO4)cc(OC)c1O [Etoposide]	3.1 DSS	0.4 DSS	3.3 DSS
CO[C@H]1C[C@@H]2CC[C@@H](C)[C@@](O)(O2)C(=O)C(=O)N2CCCC[C@H]2C(=O)O[C@H]([C@H](C)C[C@@H]2CC[C@@H](OCCO)[C@H](OC)C2)CC(=O)[C@H](C)/C=C(\C)[C@@H](O)[C@@H](OC)C(=O)[C@H](C)C[C@H](C)/C=C/C=C/C=C/1C [Everolimus]	7.5 DSS	–	0.4 DSS
C=C1C[C@@H]2[C@H](CC[C@]3(C)C(=O)CC[C@@H]23)[C@@]2(C)C=CC(=O)C=C12 [Exemestane]	3.1 DSS	3 DSS	4.6 DSS
Cc1nc(C(=O)NCC(=O)O)c(O)c2ccc(Oc3ccccc3)cc12 [FG-4592]	4.8 DSS	1 DSS	2.5 DSS
CCn1c(=O)c(-c2ccc(Cl)cc2Cl)cc2cnc(Nc3ccc(N4CCNCC4)c(F)c3)nc21 [FRAX486]	5 DSS	4.8 DSS	8.5 DSS
O=S(=O)(c1cccc2cnccc12)N1CCCNCC1 [Fasudil]	3.1 DSS	3 DSS	6 DSS
Cc1cnc(Nc2ccc(OCCN3CCCC3)cc2)nc1Nc1cccc(S(=O)(=O)NC(C)(C)C)c1 [Fedratinib]	5.8 DSS	6.5 DSS	5.8 DSS
CON(C)C(=O)N1N=C(c2cc(F)ccc2F)S[C@@]1(CCCN)c1ccccc1 [Filanesib]	16.8 DSS	16 DSS	16.7 DSS
O=C(Nc1nc2cccc(-c3ccc(CN4CCS(=O)(=O)CC4)cc3)n2n1)C1CC1 [Filgotinib]	1.5 DSS	0 DSS	3.6 DSS
CC(C)(C)NC(=O)[C@H]1CC[C@H]2[C@@H]3CC[C@H]4NC(=O)C=C[C@]4(C)[C@H]3CC[C@]12C [Finasteride]	0 DSS	0 DSS	0.4 DSS
CCCCCCCCc1ccc(CCC(N)(CO)CO)cc1 [Fingolimod]	8.5 DSS	8.9 DSS	6.6 DSS
O=c1[nH]c(=O)n([C@H]2C[C@H](O)[C@@H](CO)O2)cc1F [Floxuridine]	12.8 DSS	3 DSS	4.3 DSS

Structure (SMILES)	drug sensitivity score [1]	drug sensitivity score [2]	drug sensitivity score [3]
Nc1nc(F)nc2c1ncn2[C@@H]1O[C@H](CO)[C@@H](O)[C@@H]1O [Fludarabine]	1.8 DSS	3.3 DSS	4.7 DSS
O=c1[nH]cc(F)c(=O)[nH]1 [Fluorouracil]	0.5 DSS	0 DSS	1.1 DSS
CC(C)C(=O)Nc1ccc([N+](=O)[O-])c(C(F)(F)F)c1 [Flutamide]	0 DSS	0 DSS	0 DSS
COc1cc2c(Oc3ccc(NC(=O)C4(C(=O)Nc5ccc(F)cc5)CC4)cc3F)ccnc2cc1OCCCN1CCOCC1 [Foretinib]	4.1 DSS	4.2 DSS	5 DSS
COc1cc(Nc2ncc(F)c(Nc3ccc4c(n3)N(COP(=O)(O)O)C(=O)C(C)(C)O4)n2)cc(OC)c1OC [Fostamatinib]	3.4 DSS	–	2.6 DSS
C[C@]12CC[C@@H]3c4ccc(O)cc4C[C@@H](CCCCCCCCC[S+]([O-])CCCC(F)(F)C(F)(F)F)[C@H]3[C@@H]1CC[C@@H]2O (some centres not stated) [Fulvestrant]	0 DSS	0 DSS	1.3 DSS
O=C(NOCCO)c1ccc2cncn2c1Nc1ccc(I)cc1F [GDC-0623]	13.9 DSS	7.6 DSS	7.4 DSS
Cn1nccc1Nc1nccc(-c2ccn([C@H](CO)c3ccc(Cl)c(F)c3)c(=O)c2)n1 [GDC-0994]	5.9 DSS	0.2 DSS	5.2 DSS
CNc1nc(Nc2cn(C(C)(C)C#N)nc2C)ncc1C(F)(F)F [GNE-0877]	1.6 DSS	0 DSS	5.8 DSS
CCNc1nc(Nc2cc(F)c(C(=O)N3CCOCC3)cc2OC)ncc1C(F)(F)F [GNE-7915]	0 DSS	0 DSS	1.4 DSS
CCCc1cc(C)[nH]c(=O)c1CNC(=O)c1cc(-c2ccnc(N3CCN(C)CC3)c2)cc2c1cnn2C(C)C [GSK343]	0 DSS	0 DSS	4.5 DSS
CCCOc1ccn2c(C(C)=O)cc(-c3ccccc3S(C)(=O)=O)c2c1 [GSK2801]	0 DSS	0 DSS	0 DSS
CCOC(=O)CCNc1cc(N2CCc3ccccc3CC2)nc(-c2ccccn2)n1 [GSK-J4]	14 DSS	14.7 DSS	12.3 DSS
C[C@@H]1C=C2C(=O)O[C@@H]3CC[C@H](C1)[C@]23O [Galiellalactone]	3.8 DSS	4.2 DSS	3.4 DSS
Cc1cccc(-c2nn3c(c2-c2ccnc4ccc(C(N)=O)cc24)CCC3)n1 [Galunisertib]	0 DSS	0 DSS	0 DSS
Cc1cc(Nc2cc(CN3CCOCC3)c3nc(C)c(Cc4ccc(Cl)cc4F)n3n2)n[nH]1 [Gandotinib]	6.9 DSS	4.1 DSS	7 DSS
CC(C)c1cc(-c2n[nH]c(=O)n2-c2ccc3c(ccn3C)c2)c(O)cc1O [Ganetespib]	12.7 DSS	12.5 DSS	13.9 DSS
CN(C)C1CCN(C(=O)c2ccc(NC(=O)Nc3ccc(-c4nc(N5CCOCC5)nc(N5CCOCC5)n4)cc3)cc2)CC1 [Gedatolisib]	4.2 DSS	9.6 DSS	10.3 DSS
COc1cc2ncnc(Nc3ccc(F)c(Cl)c3)c2cc1OCCCN1CCOCC1 [Gefitinib]	3.6 DSS	6.6 DSS	3.7 DSS
Nc1ccn([C@@H]2O[C@H](CO)[C@@H](O)C2(F)F)c(=O)n1 [Gemcitabine]	15.8 DSS	6.1 DSS	13.4 DSS
CCN(CC)Cc1ccc2cc(COC(=O)Nc3ccc(C(=O)NO)cc3)ccc2c1 [Givinostat]	6.6 DSS	7.3 DSS	6.7 DSS
CN1CC[C@@H](NC(=O)Nc2ccc(C#N)cc2)C[C@@H]1c1nc2ccccc2[nH]1 [Glasdegib]	0 DSS	0 DSS	5.6 DSS
CN1CCN(C2CCN(C(=O)Nc3cc(Oc4ccc(NC(=O)C5(C(=O)Nc6ccc(F)cc6)CC5)c(F)c4)ccn3)CC2)CC1 [Golvatinib]	0 DSS	2.2 DSS	0 DSS
